According to article PMC9968170 (Pharmaceutics, 2023):
Read-outs that look alike come from different tables or passages of the source. One block for each molecule: values may come before it.

Columns and labels:
[1] = cited from earlier work
[2] = FUR alone 5 mg/kg PO
human Bcrp = details: cited from earlier work
[3] = PK of NOV (oral, given with FUR) in rats; format: in vivo, Sprague-Dawley rats; details: NOV 20 mg/kg PO; for CL renal: Sprague-Dawley, rat, urine and whole blood, read-out: NOV renal clearance (CLR) (converted)
Description: The rats were housed 2–3 per cage in a specific-pathogen-free facility with controlled light (14/10 h, light/dark cycle), temperature (20–26 °C), and humidity (50 ± 20%).
For groups 2 and 4, the rats were fasted between 4 h prior to dosing and 2 h post-dose with free access to water. […] The blood samples (25 µL) were collected in duplicate in 1 mL tubes and mixed with an equal volume of water containing heparin (30 IU/mL containing 0.05% formic acid) at pre-dose, 0.25, 0.5, 0.75, 1, 1.5, 2, 4, and 6 h.
Next, 300 µL of acetonitrile containing FUR-d5 (as internal standard; 300 ng/mL) was added to 50 µL of the calibration curve standards, QC samples, and rat blood samples to precipitate blood proteins. […] One μL of the sample was injected and LC separation was achieved using an Acquity UPLC HSS T3 column (100Å, 1.8 µm, 1 mm × 100 mm) and mobile phase (A: water with 0.1% formic acid and B: acetonitrile with 0.1% formic acid; 50 μL/min flow) with a gradient program: 0.0–1.5 min (5% B), 1.5–3.5 min (5–70% B), 3.5–5 min (70–90% B), 5–7.5 min (90% B), and 7.5–7.6 min (90–5% B), followed by 5% B until 8.5 min. […] The cone voltage (CV) was 25 V.
Similarly, 25 µL of urine sample (diluted 10-fold with water containing 0.1% formic acid) was mixed with 75 µL of acetonitrile containing 100 ng/mL of FUR-d5.
(1) CLR=Ae 0−6 h/AUC0−6 h where, Ae is the cumulative amount of drug excreted unchanged in the urine between 0 to 6 h.

OAT3 = test system: OAT3; design: method as in PMID 16489126, PMID 26700956, PMID 19282394; details: human OAT3; cited from earlier work
OAT1 = test system: OAT1; design: method as in PMID 16489126, PMID 26700956, PMID 19282394; details: human OAT1; cited from earlier work
Bcrp = test system: Bcrp; design: method as in PMID 31868552; details: rats, cited from earlier work

FUR CLR, male compared to female rats [2]: 2 fold
Compound: NS(=O)(=O)c1cc(C(=O)O)c(NCc2ccco2)cc1Cl [FUR, Furosemide]
Fraction excreted unchanged in urine, fe [1]: ≈ 65%

AUC and Cmax of NOV, male vs female rats [3]: comparable | CL renal ([3]; female rats): […] | CL renal ([3]; male rats): […] | Food-effect on the PK of NOV ([3]; fed vs fasted state): no food-effect
Compound: CO[C@@H]1[C@@H](OC(N)=O)[C@@H](O)[C@H](Oc2ccc3c(O)c(NC(=O)c4ccc(O)c(CC=C(C)C)c4)c(=O)oc3c2C)OC1(C)C [NOV, Novobiocin]

Compound: O=C(O)c1cc(/N=N/c2ccc(S(=O)(=O)Nc3ccccn3)cc2)ccc1O [sulfasalazine]
Effect of NOV on systemic clearance of sulfasalazine (Bcrp; intravenous dosing): not influenced | Increase of sulfasalazine AUC with NOV coadministration (Bcrp; oral administration): 3.2 fold | Increase of sulfasalazine Cmax with NOV coadministration (Bcrp; oral administration): 5.9 fold
